Results published in paper PMC4669708 (Cell Death & Disease, 2015).

Assays:
Experiment in all cases: c-ponatinib pulldown LC-MS/MS
Assay type in all cases: binding
[1] = biological target: TPM4 (Homo sapiens, UniProt P67936)
Outline: (§1)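 Read-out: interaction P-value combining Mascot scores, Phenyx scores and spectral counts (Fisher's method), plus fold reduction of median spectral counts on free-compound competition. Proteins were enriched from 10 mg cell lysate on c-ponatinib beads, then trypsin-digested for LC-MS/MS.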

[2] = biological target: T1, GAK (Homo sapiens, UniProt O14976)
T1 sequence (O14976 1-1311): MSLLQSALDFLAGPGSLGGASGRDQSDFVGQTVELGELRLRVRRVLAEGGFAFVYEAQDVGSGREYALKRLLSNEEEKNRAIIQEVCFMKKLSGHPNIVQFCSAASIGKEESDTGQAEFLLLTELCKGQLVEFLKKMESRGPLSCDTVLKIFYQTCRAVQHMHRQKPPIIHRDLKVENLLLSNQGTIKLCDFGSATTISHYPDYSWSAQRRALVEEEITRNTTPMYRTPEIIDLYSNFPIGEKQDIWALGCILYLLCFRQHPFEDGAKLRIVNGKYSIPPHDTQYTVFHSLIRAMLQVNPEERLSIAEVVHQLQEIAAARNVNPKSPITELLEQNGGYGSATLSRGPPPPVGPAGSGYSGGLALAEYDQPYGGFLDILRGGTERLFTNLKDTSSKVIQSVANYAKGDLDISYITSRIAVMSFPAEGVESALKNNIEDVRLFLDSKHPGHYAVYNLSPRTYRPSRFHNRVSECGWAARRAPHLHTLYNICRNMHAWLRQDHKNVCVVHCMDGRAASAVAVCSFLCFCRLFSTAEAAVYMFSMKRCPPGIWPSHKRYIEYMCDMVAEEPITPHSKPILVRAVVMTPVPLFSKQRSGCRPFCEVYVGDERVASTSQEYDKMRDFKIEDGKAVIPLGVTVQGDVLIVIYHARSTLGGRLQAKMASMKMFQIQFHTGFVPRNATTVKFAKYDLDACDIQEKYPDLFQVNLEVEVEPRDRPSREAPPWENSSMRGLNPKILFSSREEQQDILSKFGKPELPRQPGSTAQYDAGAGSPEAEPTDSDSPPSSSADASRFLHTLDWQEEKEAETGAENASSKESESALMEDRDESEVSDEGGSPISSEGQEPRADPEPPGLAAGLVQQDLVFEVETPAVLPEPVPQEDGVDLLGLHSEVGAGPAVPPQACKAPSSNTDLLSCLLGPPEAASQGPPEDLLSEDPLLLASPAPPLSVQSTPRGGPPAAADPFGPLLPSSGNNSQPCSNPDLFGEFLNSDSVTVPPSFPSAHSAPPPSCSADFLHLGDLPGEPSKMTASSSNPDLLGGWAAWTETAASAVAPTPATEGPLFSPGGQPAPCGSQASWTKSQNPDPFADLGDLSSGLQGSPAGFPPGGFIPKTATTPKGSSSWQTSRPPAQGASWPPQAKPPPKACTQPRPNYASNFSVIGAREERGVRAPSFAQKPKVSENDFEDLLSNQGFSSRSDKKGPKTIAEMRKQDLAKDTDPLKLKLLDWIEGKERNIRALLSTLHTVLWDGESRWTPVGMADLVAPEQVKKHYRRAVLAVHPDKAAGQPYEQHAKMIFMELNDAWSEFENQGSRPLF
Outline: as §1

[3] = biological target: HSPA4 (Homo sapiens, UniProt P34932)
Chain of HSPA4 (P34932 whole entry): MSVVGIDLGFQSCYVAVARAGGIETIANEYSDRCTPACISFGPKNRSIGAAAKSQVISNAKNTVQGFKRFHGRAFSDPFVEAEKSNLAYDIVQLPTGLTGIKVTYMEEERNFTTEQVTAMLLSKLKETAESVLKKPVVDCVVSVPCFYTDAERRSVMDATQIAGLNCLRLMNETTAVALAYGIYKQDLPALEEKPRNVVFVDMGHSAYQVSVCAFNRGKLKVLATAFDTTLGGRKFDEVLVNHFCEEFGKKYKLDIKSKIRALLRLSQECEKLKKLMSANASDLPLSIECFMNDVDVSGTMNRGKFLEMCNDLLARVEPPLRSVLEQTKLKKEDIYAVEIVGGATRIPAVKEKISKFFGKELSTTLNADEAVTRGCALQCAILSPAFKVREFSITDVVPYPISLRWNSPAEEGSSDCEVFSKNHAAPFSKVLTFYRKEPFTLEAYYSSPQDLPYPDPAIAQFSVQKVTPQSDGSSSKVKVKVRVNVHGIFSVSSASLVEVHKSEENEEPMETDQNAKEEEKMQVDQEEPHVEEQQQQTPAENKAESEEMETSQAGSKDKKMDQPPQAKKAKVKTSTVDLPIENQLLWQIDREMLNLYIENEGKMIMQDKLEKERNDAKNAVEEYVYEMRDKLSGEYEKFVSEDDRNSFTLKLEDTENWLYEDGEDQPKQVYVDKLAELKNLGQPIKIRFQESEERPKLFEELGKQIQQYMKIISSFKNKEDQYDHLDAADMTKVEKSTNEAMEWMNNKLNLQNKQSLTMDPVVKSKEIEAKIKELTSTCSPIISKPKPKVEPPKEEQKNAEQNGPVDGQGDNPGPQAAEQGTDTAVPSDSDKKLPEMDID
Outline: as §1

[4] = biological target: HSPA8 (Homo sapiens, UniProt P11142)
Chain of HSPA8 (P11142 whole entry): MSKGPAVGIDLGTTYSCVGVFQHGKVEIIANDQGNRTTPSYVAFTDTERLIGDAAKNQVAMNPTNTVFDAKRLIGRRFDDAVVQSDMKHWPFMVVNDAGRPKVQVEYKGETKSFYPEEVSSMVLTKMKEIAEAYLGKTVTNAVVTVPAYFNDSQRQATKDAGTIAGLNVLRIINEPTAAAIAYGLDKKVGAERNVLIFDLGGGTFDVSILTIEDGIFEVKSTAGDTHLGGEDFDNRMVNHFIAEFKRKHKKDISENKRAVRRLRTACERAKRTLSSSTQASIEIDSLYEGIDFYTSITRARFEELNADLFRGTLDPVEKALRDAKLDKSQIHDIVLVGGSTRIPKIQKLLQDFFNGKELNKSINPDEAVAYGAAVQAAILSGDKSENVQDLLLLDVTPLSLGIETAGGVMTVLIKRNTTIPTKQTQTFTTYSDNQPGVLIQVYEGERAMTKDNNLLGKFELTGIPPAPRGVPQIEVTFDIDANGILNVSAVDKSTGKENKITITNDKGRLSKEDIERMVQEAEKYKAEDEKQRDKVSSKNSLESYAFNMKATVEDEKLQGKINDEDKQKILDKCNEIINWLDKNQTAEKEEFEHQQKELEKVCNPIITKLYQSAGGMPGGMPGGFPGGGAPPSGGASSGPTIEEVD
Outline: as §1

[5] = biological target: STK10 (Homo sapiens, UniProt O94804)
Chain of STK10 (O94804 whole entry): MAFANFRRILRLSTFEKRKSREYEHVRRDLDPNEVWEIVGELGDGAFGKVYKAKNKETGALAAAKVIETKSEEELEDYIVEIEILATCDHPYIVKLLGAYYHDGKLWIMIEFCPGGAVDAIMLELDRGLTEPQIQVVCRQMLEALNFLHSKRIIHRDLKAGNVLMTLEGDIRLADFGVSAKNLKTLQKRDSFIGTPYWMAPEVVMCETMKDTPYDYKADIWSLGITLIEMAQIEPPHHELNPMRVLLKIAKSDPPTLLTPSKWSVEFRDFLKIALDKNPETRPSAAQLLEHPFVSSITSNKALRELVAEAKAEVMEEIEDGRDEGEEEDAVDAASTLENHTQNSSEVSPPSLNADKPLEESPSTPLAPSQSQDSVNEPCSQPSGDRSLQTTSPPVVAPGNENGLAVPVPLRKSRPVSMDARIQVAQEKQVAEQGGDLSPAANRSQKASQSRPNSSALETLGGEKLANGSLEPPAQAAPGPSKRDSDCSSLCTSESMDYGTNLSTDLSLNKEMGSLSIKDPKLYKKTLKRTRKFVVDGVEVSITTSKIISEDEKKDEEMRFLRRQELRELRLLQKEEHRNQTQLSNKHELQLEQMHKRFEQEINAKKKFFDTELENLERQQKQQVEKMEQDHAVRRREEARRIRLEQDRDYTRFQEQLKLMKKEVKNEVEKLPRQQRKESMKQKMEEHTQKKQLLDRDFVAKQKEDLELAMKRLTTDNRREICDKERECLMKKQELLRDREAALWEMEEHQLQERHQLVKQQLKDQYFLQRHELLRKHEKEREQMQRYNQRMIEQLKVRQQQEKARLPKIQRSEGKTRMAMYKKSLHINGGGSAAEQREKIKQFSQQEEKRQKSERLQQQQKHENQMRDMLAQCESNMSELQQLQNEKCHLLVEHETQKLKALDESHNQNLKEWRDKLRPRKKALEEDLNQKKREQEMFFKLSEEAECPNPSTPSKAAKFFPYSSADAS
Outline: as §1

Chain of TPM4 (P67936 whole entry): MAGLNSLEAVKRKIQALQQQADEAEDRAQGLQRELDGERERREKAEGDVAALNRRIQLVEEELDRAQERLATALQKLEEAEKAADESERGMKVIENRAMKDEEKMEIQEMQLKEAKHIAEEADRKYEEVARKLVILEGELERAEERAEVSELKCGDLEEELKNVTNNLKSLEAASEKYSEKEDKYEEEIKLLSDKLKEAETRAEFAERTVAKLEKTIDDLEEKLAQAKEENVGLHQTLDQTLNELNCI

## Cc1ccc(C(=O)Nc2ccc(CN3CCN(CCCN)CC3)c(C(F)(F)F)c2)cc1C#Cc1cnc2cccnn12 [c-ponatinib]
[1]; + free ponatinib
  Av. SC comp.: 0.25
  Total SC comp.: 1
[1]; no competitor
  Av. SC: 3.5
  Total SC: 14
[2]; + free ponatinib
  Av. SC comp.: 10.25
  Total SC comp.: 41
[2]; no competitor
  Av. SC: 22.75
  Total SC: 91
[3]; + free ponatinib
  Av. SC comp.: 1.75
  Total SC comp.: 7
[3]; no competitor
  Av. SC: 5.5
  Total SC: 22
[4]; + free ponatinib
  Av. SC comp.: 17.25
  Total SC comp.: 69
[4]; no competitor
  Av. SC: 29.25
  Total SC: 117
[5]; + free ponatinib
  Av. SC comp.: 0
  Total SC comp.: 0
[5]; no competitor
  Av. SC: 5.5
  Total SC: 22
